Source: paper PMC10272271, “MAM-2201 acute administration impairs motor, sensorimotor, prepulse inhibition, and memory functions in mice: a comparison with its analogue AM-2201” (Psychopharmacology, 2023)

Legend:
CD-1 male mice [1] = system: CD-1 male mice; design: method as in Bilel et al. [2020]; settings: ref Bilel et al. [2020]; cited from earlier work
CD-1 male mice [2] = system: CD-1 male mice; design: method as in Bilel et al. ([2020]); settings: i.p., value ± SEM, elaborated from earlier data, ref Bilel et al. ([2020]); cited from earlier work
CD-1 male mice [3] = system: CD-1 male mice; design: method as in Bilel et al. ([2020]); settings: i.p., value ± SEM, elaborated from earlier data, ref Bilel et al. ([2020]); cited from earlier work; remark: listed apart in the source
CD-1 male mice [4] = system: CD-1 male mice; design: method as in Bilel et al. ([2020]); settings: i.p., value ± SEM, elaborated from earlier data, ref Bilel et al. ([2020]); cited from earlier work; remark: listed apart in the source
CD-1 male mice [5] = assay: Spontaneous locomotor activity (open field, ANY-maze); assay type: in vivo, mouse
Protocol: (§1) For the overall study 234 mice were used. In sensorimotor (visual object, visual placing, acoustic, and overall tactile responses) tests for MAM-2201, experiments for each treatment dose (vehicle or 5 different MAM-2201 doses, 0.01, 0.1, 1, 3, and 6 mg/kg) used 8 mice (total mice used: 48) and for MAM-2201 with AM-251 pretreatment, experiments for each dose regimen (vehicle + AM-251 or MAM-2201 + AM-251, 6 mg/kg) used 16 mice. In the analysis of spontaneous locomotion (open field test) for MAM-2201, experiments for each treatment regimen (vehicle or 4 different MAM-2201 doses, 0.01, 0.1, 1, and 6 mg/kg) used 10 mice (total mice used: 50). […] The voluntary and involuntary motor responses of the animal to different visual, acoustic, and tactile stimuli were evaluated according to the procedure described in our previous studies (Ossato et al. [2015]; Bilel et al. [2020]). To reduce the number of animals used, mice were evaluated in functional observational tests carried out in a consecutive manner according to the following time scheme: observation of visual object responses (frontal and lateral view), acoustic response, tactile response (vibrissae, corneal and pinnae reflexes), and visual placing response. […] Sensory gating was evaluated by analysis of the pre-pulse inhibition (PPI) of the acoustic startle reflex as previously described (Bilel et al. [2020]). […]

CD-1 male mice [6] = assay: Visual placing response test; assay type: in vivo, mouse
Protocol: as §1, with “50). In the PPI test for MAM-2201, experiments for each treatment (vehicle or 3 different MAM-2201 doses, 0.01, 0.1, and 1 mg/kg) used 10 mice (total mice used: 40), while for MAM-2201 experiments in the Novel Object Recognition (NOR) test for each treatment regimen (vehicle or 3 different MAM-2201 and vehicle or 3 different AM-2201 doses, 0.01, 0.1, and 1 mg/kg) used 10 mice (total mice used: 80).” for “50).”, “response. Sensorimotor tests were measured at 10, 30, 60, 120, 180, 240, and 300 min after injections for the evaluation of the visual object, acoustic and the tactile response, and at 15, 45, 75, 135, 195, 255, and 315 min after injections for the evaluation of visual placing response.” for “response.”

CD-1 male mice [7] = assay: Overall tactile response (vibrissae, corneal, pinnae reflexes); assay type: in vivo, mouse
Protocol: For the overall study 234 mice were used. In sensorimotor (visual object, visual placing, acoustic, and overall tactile responses) tests for MAM-2201, experiments for each treatment dose (vehicle or 5 different MAM-2201 doses, 0.01, 0.1, 1, 3, and 6 mg/kg) used 8 mice (total mice used: 48) and for MAM-2201 with AM-251 pretreatment, experiments for each dose regimen (vehicle + AM-251 or MAM-2201 + AM-251, 6 mg/kg) used 16 mice. In the analysis of spontaneous locomotion (open field test) for MAM-2201, experiments for each treatment regimen (vehicle or 4 different MAM-2201 doses, 0.01, 0.1, 1, and 6 mg/kg) used 10 mice (total mice used: 50). In the PPI test for MAM-2201, experiments for each treatment (vehicle or 3 different MAM-2201 doses, 0.01, 0.1, and 1 mg/kg) used 10 mice (total mice used: 40), while for MAM-2201 experiments in the Novel Object Recognition (NOR) test for each treatment regimen (vehicle or 3 different MAM-2201 and vehicle or 3 different AM-2201 doses, 0.01, 0.1, and 1 mg/kg) used 10 mice (total mice used: 80). In the present study the effect of MAM-2201 on sensorimotor responses was investigated using a battery of behavioral tests widely used in studies of “safety-pharmacology,” that we routinely adopted in our laboratory, for the preclinical characterization of new molecules in rodents (Ossato et al. [2015]; Vigolo et al. [2015]; Bilel et al. [2020]). The voluntary and involuntary motor responses of the animal to different visual, acoustic, and tactile stimuli were evaluated according to the procedure described in our previous studies (Ossato et al. [2015]; Bilel et al. [2020]). To reduce the number of animals used, mice were evaluated in functional observational tests carried out in a consecutive manner according to the following time scheme: observation of visual object responses (frontal and lateral view), acoustic response, tactile response (vibrissae, corneal and pinnae reflexes), and visual placing response. Sensorimotor tests were measured at 10, 30, 60, 120, 180, 240, and 300 min after injections for the evaluation of the visual object, acoustic and the tactile response, and at 15, 45, 75, 135, 195, 255, and 315 min after injections for the evaluation of visual placing response. Behavioral tests were conducted in a thermostated (temperature: 20–22 °C, humidity: 45–55%) and light (150 lx) controlled room with a background noise of 40 ± 4 dB. […] The behavior of mice was videotaped by a camera (B/W USB Camera day & night with varifocal lens; Ugo Basile, Italy) placed at the top or on one side of the box and analyzed off-line by a different trained operator. […] Sensory gating was evaluated by analysis of the pre-pulse inhibition (PPI) of the acoustic startle reflex as previously described (Bilel et al. [2020]). […]

CD-1 male mice [8] = assay: Acoustic response test; assay type: in vivo, mouse; settings: for acoustic response reduced to about: immediately after administration
Protocol: For the overall study 234 mice were used. In sensorimotor (visual object, visual placing, acoustic, and overall tactile responses) tests for MAM-2201, experiments for each treatment dose (vehicle or 5 different MAM-2201 doses, 0.01, 0.1, 1, 3, and 6 mg/kg) used 8 mice (total mice used: 48) and for MAM-2201 with AM-251 pretreatment, experiments for each dose regimen (vehicle + AM-251 or MAM-2201 + AM-251, 6 mg/kg) used 16 mice. In the analysis of spontaneous locomotion (open field test) for MAM-2201, experiments for each treatment regimen (vehicle or 4 different MAM-2201 doses, 0.01, 0.1, 1, and 6 mg/kg) used 10 mice (total mice used: 50). In the PPI test for MAM-2201, experiments for each treatment (vehicle or 3 different MAM-2201 doses, 0.01, 0.1, and 1 mg/kg) used 10 mice (total mice used: 40), while for MAM-2201 experiments in the Novel Object Recognition (NOR) test for each treatment regimen (vehicle or 3 different MAM-2201 and vehicle or 3 different AM-2201 doses, 0.01, 0.1, and 1 mg/kg) used 10 mice (total mice used: 80). In the present study the effect of MAM-2201 on sensorimotor responses was investigated using a battery of behavioral tests widely used in studies of “safety-pharmacology,” that we routinely adopted in our laboratory, for the preclinical characterization of new molecules in rodents (Ossato et al. [2015]; Vigolo et al. [2015]; Bilel et al. [2020]). The voluntary and involuntary motor responses of the animal to different visual, acoustic, and tactile stimuli were evaluated according to the procedure described in our previous studies (Ossato et al. [2015]; Bilel et al. [2020]). To reduce the number of animals used, mice were evaluated in functional observational tests carried out in a consecutive manner according to the following time scheme: observation of visual object responses (frontal and lateral view), acoustic response, tactile response (vibrissae, corneal and pinnae reflexes), and visual placing response. Sensorimotor tests were measured at 10, 30, 60, 120, 180, 240, and 300 min after injections for the evaluation of the visual object, acoustic and the tactile response, and at 15, 45, 75, 135, 195, 255, and 315 min after injections for the evaluation of visual placing response. Behavioral tests were conducted in a thermostated (temperature: 20–22 °C, humidity: 45–55%) and light (150 lx) controlled room with a background noise of 40 ± 4 dB. The apparatus for the visual object, acoustic and tactile sensorimotor tests consisted of an experimental chamber (350 × 350 × 350 mm) with black methacrylate walls and a transparent front door. During the week before the experiment, each mouse was placed in the box and handled (once a day) on every other day, i.e., 3 times, to get used to both the environment and the experimenter. To avoid olfactory cues, cages were carefully cleaned with a dilute (5%) ethanol solution and rinsed with water. All experiments were performed between 8:30 AM and 2:00 PM and conducted by trained observers working in pairs who were blinded to the treatment being tested (Ossato et al. [2015]). The behavior of mice was videotaped by a camera (B/W USB Camera day & night with varifocal lens; Ugo Basile, Italy) placed at the top or on one side of the box and analyzed off-line by a different trained operator. […] Sensory gating was evaluated by analysis of the pre-pulse inhibition (PPI) of the acoustic startle reflex as previously described (Bilel et al. [2020]). […]

CD-1 male mice [9] = assay: Acoustic startle and pre-pulse inhibition (PPI) test; assay type: in vivo, mouse
[10] = Mus musculus, ip, mice, value ± SEM

O=C(c1cccc2ccccc12)c1cn(CCCCCF)c2ccccc12 [AM-2201, 1-[(5-Fluoropentyl)-1H-indol-3-yl](1-naphthylenyl) methanone]
time during which distance traveled was reduced (CD-1 male mice [1]): up to 45 min
ED50 (mg/kg), Visual object (CD-1 male mice [2]): 1.976 ± 0.063 mg/kg
ED50 (mg/kg), Visual placing (CD-1 male mice [3]): 0.500 ± 0.030 mg/kg
ED50 (mg/kg), Overall tactile (CD-1 male mice [4]): 2.120 ± 0.013 mg/kg

Cc1ccc(C(=O)c2cn(CCCCCF)c3ccccc23)c2ccccc12 [MAM-2201, 1-[(5-fluoropentyl)-1H-indol-3-yl](4-methyl-1-naphthalenyl) methanone]
effect on immobility time (CD-1 male mice [5]; 1 and 6 mg/kg i.p., first hour): increased
time during which motor capacity was affected (CD-1 male mice [5]; open field test): ≤ 60 min
effect on visual placing response (CD-1 male mice [6]; 0.01-6 mg/kg i.p., persisted up to 5 h at all doses): drastic impairment
ED50 (CD-1 male mice [6]; [10]): 0.291 ± 0.025 mg/kg
effect on overall tactile response (CD-1 male mice [7]; 1 mg/kg i.p., first hour after administration): slightly reduced
effect on overall tactile response (CD-1 male mice [7]; 3 and 6 mg/kg i.p.): deeper and more persistent effect
ED50 (CD-1 male mice [7]; [10]): 1.861 ± 0.011 mg/kg
acoustic response reduced to about (CD-1 male mice [8]; 1 mg/kg i.p.): about 20%
acoustic response reduced to about (CD-1 male mice [8]; 3 mg/kg i.p.): ~80%
acoustic response reduced to about (CD-1 male mice [8]; 6 mg/kg i.p.): ~100%
ED50 (CD-1 male mice [8]; Mus musculus, ip, mice, i.p., value ± SEM, acoustic response test, read-out: ED50 (mg/kg), Startle reflex): 1.25 ± 0.013 mg/kg
effect on startle amplitude (CD-1 male mice [9]; only at 1 mg/kg i.p., at 15 and 120 min): reduced
effect on PPI (prepulse startle intensity) (CD-1 male mice [9]; prepulse 68 dB, 15 min, 0.1 and 1 mg/kg i.p.): significant decrease
decrease of PPI (CD-1 male mice [9]; prepulse 68 dB, 120 min, 0.1 mg/kg i.p.): ~ 19%
decrease of PPI (CD-1 male mice [9]; prepulse 68 dB, 120 min, 1 mg/kg i.p.): ~40%
decrease of PPI (CD-1 male mice [9]; prepulse 75 dB, 15 min, 0.1 mg/kg i.p.): ~ 28%
decrease of PPI (CD-1 male mice [9]; prepulse 75 dB, 15 min, 1 mg/kg i.p.): ~ 41%
decrease of PPI (CD-1 male mice [9]; prepulse 75 dB, 120 min, 1 mg/kg i.p.): ~ 34%
decrease of PPI (CD-1 male mice [9]; prepulse 85 dB, 15 min, 0.1 mg/kg i.p.): ~ 19%
decrease of PPI (CD-1 male mice [9]; prepulse 85 dB, 15 min, 1 mg/kg i.p.): ~ 37%
decrease of PPI (CD-1 male mice [9]; prepulse 85 dB, 120 min, 0.1 mg/kg i.p.): ~ 19%
decrease of PPI (CD-1 male mice [9]; prepulse 85 dB, 120 min, 1 mg/kg i.p.): ~ 37%
